# Laboratory results as given in PubChem BioAssay AID1963835 (Molecular Pharmacology Branch, DTP, NCI, 2024).
# pIC50: −log10 of the molar value.
# Tested on: 699152-130-R-J1-PDC complex spheroid viability
# Assay: Anticancer human tumor 699152-130-R-J1-PDC patient-derived pancreatic carcinoma cell line growth inhibition [POLQ]
# Settings: for pIC50: curve of first compound; for viability, T/C: stronger effect = lower value
# Outline: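 Patient-derived tumour cells were co-cultured with HUVEC and mesenchymal stem cells as multicellular spheroids at 37 °C. They were treated with POLQ inhibitors (novobiocin, ART-558, RP6685) alone or combined with other agents. Top concentrations were at or near clinical Cmax (otherwise 10 microM; SN-38 at 1 microM), decreasing in half-log steps.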
# [1] = second compound 0.0316 µM, first compound 0.0316 µM
# [2] = second compound 0.0316 µM, first compound 0.1 µM
# [3] = second compound 0.0316 µM, first compound 0.316 µM
# [4] = second compound 0.0316 µM, first compound 1 µM
# [5] = second compound 0.0316 µM, first compound 3.16 µM
# [6] = second compound 0.0316 µM, first compound 10 µM
# [7] = second compound 0.1 µM, first compound 0.0316 µM
# [8] = second compound 0.1 µM, first compound 0.1 µM
# [9] = second compound 0.1 µM, first compound 0.316 µM
# [10] = second compound 0.1 µM, first compound 1 µM
# [11] = second compound 0.1 µM, first compound 3.16 µM
# [12] = second compound 0.1 µM, first compound 10 µM
# [13] = second compound 0.316 µM, first compound 0.0316 µM
# [14] = second compound 0.316 µM, first compound 0.1 µM
# [15] = second compound 0.316 µM, first compound 0.316 µM
# [16] = second compound 0.316 µM, first compound 1 µM
# [17] = second compound 0.316 µM, first compound 3.16 µM
# [18] = second compound 0.316 µM, first compound 10 µM
# [19] = second compound 1 µM, first compound 0.0316 µM
# [20] = second compound 1 µM, first compound 0.1 µM
# [21] = second compound 1 µM, first compound 0.316 µM
# [22] = second compound 1 µM, first compound 1 µM
# [23] = second compound 1 µM, first compound 3.16 µM
# [24] = second compound 1 µM, first compound 10 µM
# [25] = second compound 3.16 µM, first compound 0.0316 µM
# [26] = second compound 3.16 µM, first compound 0.1 µM
# [27] = second compound 3.16 µM, first compound 0.316 µM
# [28] = second compound 3.16 µM, first compound 1 µM
# [29] = second compound 3.16 µM, first compound 3.16 µM
# [30] = second compound 3.16 µM, first compound 10 µM
# [31] = second compound 10 µM, first compound 0.0316 µM
# [32] = second compound 10 µM, first compound 0.1 µM
# [33] = second compound 10 µM, first compound 0.316 µM
# [34] = second compound 10 µM, first compound 1 µM
# [35] = second compound 10 µM, first compound 3.16 µM
# [36] = second compound 10 µM, first compound 10 µM
# 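Further: spheroids exposed to agents for 7 days before viability reading.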
# 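Wherever viability, T/C is given: percent of DMSO vehicle control viability so 100% = vehicle and 0% = no viable signal.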
smiles,measurement,setting,value
Nc1ccn(C2OC(CO)C(O)C2(F)F)c(=O)n1 (centres undefined) + COC1C(OC(N)=O)C(O)C(Oc2ccc3c(O)c(NC(=O)c4ccc(O)c(CC=C(C)C)c4)c(=O)oc3c2C)OC1(C)C,pIC50,second compound 0.0316 µM,6.69
same,pIC50,second compound 0.1 µM,6.58
same,pIC50,second compound 0.316 µM,6.42
same,pIC50,second compound 1 µM,6.58
same,pIC50,second compound 3.16 µM,6.32
same,pIC50,second compound 10 µM,6.12
same,"viability, T/C",[1],68.1%
same,"viability, T/C",[2],52.2%
same,"viability, T/C",[3],42.9%
same,"viability, T/C",[4],48.3%
same,"viability, T/C",[5],39%
same,"viability, T/C",[6],31.2%
same,"viability, T/C",[7],73.5%
same,"viability, T/C",[8],56.1%
same,"viability, T/C",[9],48.7%
same,"viability, T/C",[10],44.8%
same,"viability, T/C",[11],35.4%
same,"viability, T/C",[12],34.3%
same,"viability, T/C",[13],64.4%
same,"viability, T/C",[14],56.6%
same,"viability, T/C",[15],49.7%
same,"viability, T/C",[16],44.4%
same,"viability, T/C",[17],46.4%
same,"viability, T/C",[18],35.4%
same,"viability, T/C",[19],70%
same,"viability, T/C",[20],51.5%
same,"viability, T/C",[21],53.3%
same,"viability, T/C",[22],45.1%
same,"viability, T/C",[23],43.2%
same,"viability, T/C",[24],40.1%
same,"viability, T/C",[25],61.7%
same,"viability, T/C",[26],55.6%
same,"viability, T/C",[27],51.4%
same,"viability, T/C",[28],51.5%
same,"viability, T/C",[29],37.1%
same,"viability, T/C",[30],40.8%
same,"viability, T/C",[31],72.1%
same,"viability, T/C",[32],56.7%
same,"viability, T/C",[33],54.8%
same,"viability, T/C",[34],51.3%
same,"viability, T/C",[35],44.1%
same,"viability, T/C",[36],38%
COc1cc(C2c3cc4c(cc3C(OC3OC5COC(C)OC5C(O)C3O)C3COC(=O)C23)OCO4)cc(OC)c1O (centres undefined) + COC1C(OC(N)=O)C(O)C(Oc2ccc3c(O)c(NC(=O)c4ccc(O)c(CC=C(C)C)c4)c(=O)oc3c2C)OC1(C)C,pIC50,second compound 0.0316 µM,5.40
same,pIC50,second compound 0.1 µM,5.50
same,pIC50,second compound 0.316 µM,5.39
same,pIC50,second compound 1 µM,5.60
same,pIC50,second compound 3.16 µM,5.34
same,pIC50,second compound 10 µM,5.52
same,"viability, T/C",[1],92.1%
same,"viability, T/C",[2],99.5%
same,"viability, T/C",[3],66.4%
same,"viability, T/C",[4],72.5%
same,"viability, T/C",[5],51.3%
same,"viability, T/C",[6],40.2%
same,"viability, T/C",[7],83.9%
same,"viability, T/C",[8],94%
same,"viability, T/C",[9],71.1%
same,"viability, T/C",[10],61.1%
same,"viability, T/C",[11],54.3%
same,"viability, T/C",[12],38.2%
same,"viability, T/C",[13],99.5%
same,"viability, T/C",[14],80.4%
same,"viability, T/C",[15],74.4%
same,"viability, T/C",[16],70.8%
same,"viability, T/C",[17],46.8%
same,"viability, T/C",[18],42.7%
same,"viability, T/C",[19],94.5%
same,"viability, T/C",[20],87.8%
same,"viability, T/C",[21],75%
same,"viability, T/C",[22],60.4%
same,"viability, T/C",[23],47.7%
same,"viability, T/C",[24],38.4%
same,"viability, T/C",[25],93%
same,"viability, T/C",[26],86.2%
same,"viability, T/C",[27],75.3%
same,"viability, T/C",[28],66.7%
same,"viability, T/C",[29],49.7%
same,"viability, T/C",[30],46%
same,"viability, T/C",[31],87.3%
same,"viability, T/C",[32],85.6%
same,"viability, T/C",[33],78.5%
same,"viability, T/C",[34],62.6%
same,"viability, T/C",[35],50.8%
same,"viability, T/C",[36],40.6%
